Reference: patent EP4741383A1, “COMPOUND AND USE THEREOF AS ANTI-CANCER DRUG” (Tyligand Bioscience (Shanghai) Limited, priority 2023, dated 2025)

Target: T1, hERG potassium channel (Homo sapiens, UniProt Q12809)
T1 construct: host or cells: HEK-293
Test: hERG manual patch-clamp assay in HEK-293 cells
Type: cell-based
Details: HEK-293 cells stably expressing the hERG potassium channel, HEK-293 cells stably expressing hERG
Excerpt: This experiment was a non-GLP trial conducted with reference to GLP guidelines and in accordance with the following technical guidelines: National Medical Products Administration: Technical Guidelines for Non-Clinical Studies of Potential Effects of Drugs on QT Interval Prolongation (2014), and ICH S7B Guidelines for Non-Clinical Evaluation of Potential Drug-Induced Delayed Ventricular Repolarization (QT Interval Prolongation) in Humans (2005).
Sample preparation: the weighed test substance was prepared into a 5 mM or 10 mM stock solution with DMSO, then diluted with DMSO to a 3.33 mM diluent. The stock solution was then diluted with extracellular fluid to prepare a 10 µM working solution, ensuring a DMSO concentration of 0.3%. The solution was sonicated for 20 min. The solubility of the test sample was visually inspected; all concentrations dissolved completely without any visible precipitate.
Preparation of positive control: 3.99 mg Cisapride (positive control) was prepared into a 10 mM stock solution using 807.96 µL DMSO. This stock solution was then successively diluted with DMSO to 1000, 333.33, 33.33, 3.33, and 0.33 µM dilutions. Before testing, 30 µL of each of the last four dilutions was added to 10 mL of extracellular fluid, ensuring a DMSO concentration of 0.3%. The final working solution concentrations of Cisapride were 1000, 100, 10, and 1 nM. Cisapride was visually inspected for solubility; all concentrations dissolved completely without any visible precipitate.
The blank control stock solution (DMSO) should be stored at room temperature. The blank control working solution should be prepared on the same day and stored at room temperature. The test substance and positive control stock solutions should be stored at -20 °C. […]
The hERG activity of the representative compounds of this disclosure was detected using conventional manual patch-clamp techniques in the art (Patch-Clamp Methods and Protocols, 2014, 2nd edition, Humana Press, edited by Marzia Martina and Stefano Taverna).

T1 sequence (Q12809 whole entry): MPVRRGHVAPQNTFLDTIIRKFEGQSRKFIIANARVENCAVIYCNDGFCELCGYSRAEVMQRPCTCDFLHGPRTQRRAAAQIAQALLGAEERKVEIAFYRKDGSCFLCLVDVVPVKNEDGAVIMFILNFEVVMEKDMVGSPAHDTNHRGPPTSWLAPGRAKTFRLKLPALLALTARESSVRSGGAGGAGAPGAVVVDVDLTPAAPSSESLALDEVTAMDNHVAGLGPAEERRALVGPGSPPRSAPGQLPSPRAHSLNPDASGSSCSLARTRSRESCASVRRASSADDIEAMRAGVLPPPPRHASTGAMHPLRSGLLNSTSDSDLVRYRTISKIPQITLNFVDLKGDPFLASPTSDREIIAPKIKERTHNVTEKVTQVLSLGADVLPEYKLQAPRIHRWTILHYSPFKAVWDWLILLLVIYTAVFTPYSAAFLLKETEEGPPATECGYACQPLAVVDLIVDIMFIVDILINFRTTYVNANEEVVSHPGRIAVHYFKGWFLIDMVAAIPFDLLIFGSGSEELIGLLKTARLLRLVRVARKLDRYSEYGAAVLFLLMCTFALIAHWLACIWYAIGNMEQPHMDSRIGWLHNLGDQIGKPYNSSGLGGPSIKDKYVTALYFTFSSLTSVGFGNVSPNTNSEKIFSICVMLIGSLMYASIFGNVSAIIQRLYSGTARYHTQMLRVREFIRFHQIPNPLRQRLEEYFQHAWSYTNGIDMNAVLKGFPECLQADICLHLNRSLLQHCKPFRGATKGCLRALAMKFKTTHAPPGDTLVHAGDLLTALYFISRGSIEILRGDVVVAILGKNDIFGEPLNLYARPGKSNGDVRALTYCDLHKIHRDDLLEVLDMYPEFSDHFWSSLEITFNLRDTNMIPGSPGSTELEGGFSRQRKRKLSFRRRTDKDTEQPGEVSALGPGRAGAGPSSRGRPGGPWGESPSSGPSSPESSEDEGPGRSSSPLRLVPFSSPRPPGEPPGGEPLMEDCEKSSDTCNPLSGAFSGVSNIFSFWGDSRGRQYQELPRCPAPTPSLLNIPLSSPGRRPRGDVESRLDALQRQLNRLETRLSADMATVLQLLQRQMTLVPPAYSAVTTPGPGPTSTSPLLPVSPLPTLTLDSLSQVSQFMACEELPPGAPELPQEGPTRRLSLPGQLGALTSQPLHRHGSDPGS

Compared with O=C(Nc1ccc(-c2cc3cc(F)c(-c4nnn[nH]4)cc3n2C2CCC2)cc1)C(=O)Nc1ccc(N2CCC3(CCOC3)CC2)cc1 [Example 67], CC1(n2c(-c3ccc(NC(=O)C(=O)Nc4ccc(N5CCC6(CCOC6)CC5)cc4)cc3)cc3cc(F)c(-c4nnn[nH]4)cc32)CCC1 [Example 68] is lower in inhibition at 10 µM: 16.9% for the first, 8.79% for the second.

In the case of O=C(Nc1ccc(-c2cc3cc(F)c(-c4nnn[nH]4)cc3n2C2CCC2)cc1)C(=O)Nc1ccc(N2CCC(CO)CC2)cc1 [Example 23], the inhibition at 10 µM is reported as -0.72%.
